Test results as given in patent US20230374038A1, “MODULATORS OF CYSTIC FIBROSIS TRANSMEMBRANE CONDUCTANCE REGULATOR” (VERTEX PHARMACEUTICALS INCORPORATED, priority 2020, published 2023).

Target: CFTR (Homo sapiens, UniProt P13569)
Test: Membrane Potential Dye, Enteroid Assay B
Format: cell-based
Settings: for EC50: read-out: Ent. B EC50
Procedure: Base medium (ADF+++) consisted of Advanced DMEM/Ham's F12, 2 mM Glutamax, 10 mM HEPES, 1 µg/mL penicillin/streptomycin.
Intestinal enteroid maintenance medium (IEMM) consisted of ADF+++, 1× B27 supplement, 1× N2 supplement, 1.25 mM N-acetyl cysteine, 10 mM Nicotinamide, 50 ng/mL hEGF, 10 nM Gastrin, 1 pg/mL hR-spondin-1, 100 ng/mL hNoggin, TGF-b type 1 inhibitor A-83-01, 100 μg/mL Primocin, […] P38 MAPK inhibitor SB202190.
Bath 1 Buffer consisted of 1 mM MgCl2, 160 mM NaCl, 4.5 mM KCl, 10 mM HEPES, 10 mM Glucose, 2 mM CaCl2).
Chloride Free Buffer consisted of 1 mM Magnesium Gluconate, 2 mM Calcium Gluconate, 4.5 mM Potassium Gluconate, 160 mM Sodium Gluconate, 10 mM HEPES, 10 mM Glucose.
Bath1 Dye Solution consisted of Bath 1 Buffer, 0.04% Pluronic F127, […] Methyl Oxonol, 30 μM CaCCinh-A01, 30 μM Chicago Sky Blue.
Chloride Free Dye Solution consisted of Chloride Free Buffer, 0.04% Pluronic F127, 20 μM Methyl Oxonol, 30 μM CaCCinh-A01, 30 μM Chicago Sky Blue.
Chloride Free Dye Stimulation Solution consisted of Chloride Free Dye Solution, 10 μM forskolin, 100 μM IBMX, and 300 nM Compound III.
Human intestinal epithelial enteroid cells were obtained from the Hubrecht Institute for Developmental Biology and Stem Cell Research, Utrecht, The Netherlands and expanded in T-Flasks as previously described (Dekkers J F, Wiegerinck C L, de Jonge H R, Bronsveld I, Janssens H M, de Winter-de Groot K M, Brandsma A M, de Jong N W M, Bijvelds M J C, Scholte B J, Nieuwenhuis E E S, van den Brink S, Clevers H, van der Ent C K, Middendorp S and M Beekman J M. A functional CFTR assay using primary cystic fibrosis intestinal organoids. Nat Med. 2013 July; 19(7):939-45.).
Cells were recovered in cell recovery solution, collected by centrifugation at 650 rpm for 5 min at 4° C., resuspended in TryPLE and incubated for 5 min at 37° C. Cells were then collected by centrifugation at 650 rpm for 5 min at 4° C. and resuspended in IEMM containing 10 μM ROCK inhibitor (RI). The cell suspension was passed through a 40 μm cell strainer and resuspended at 1×10^6 cells/mL in IEMM containing 10 μM RI. Cells were seeded at 5000 cells/well into multi-well plates and incubated for overnight at 37° C., 95% humidity and 5% CO2 prior to assay.
Enteroid cells were incubated with test compound in IEMM for 18-24 hours at 37° C., 95% humidity and 5% CO2. […] Briefly, cells were washed 5 times in Bath 1 Buffer. Bath 1 Dye Solution was added and the cells were incubated for 25 min at room temperature. Following dye incubation, cells were washed 3 times in Chloride Free Dye Solution. Chloride transport was initiated by addition of Chloride Free Dye Stimulation Solution and the fluorescence signal was read for 15 min. […] Chloride transport was then expressed as a percentage of the chloride transport following treatment with 1 μM (14S)-8-[3-(2-{Dispiro[2.0.2.1]heptan-7-yl}ethoxy)-1H-pyrazol-1-yl]-12,12-dimethyl-2λ^6-thia-3,9,11,18,23-pentaazatetracyclo[17.3.1.111,14.05,10]tetracosa-1(22),5,7,9,19(23),20-hexaene-2,2,4-trione, 3 μM (R)-1-(2,2-difluorobenzo[d][1,3]dioxol-5-yl)-N-(1-(2,3-dihydroxypropyl)-6-fluoro-2-(1-hydroxy-2-methylpropan-2-yl)-1H-indol-5-yl)cyclopropanecarboxamide and 300 nM acute N-[2,4-bis(1,1-dimethylethyl)-5-hydroxyphenyl]-1,4-dihydro-4-oxoquinoline-3-carboxamide triple combination control (% Activity).

Sequence of CFTR (P13569 with tags, fused parts or gaps DEL508-508): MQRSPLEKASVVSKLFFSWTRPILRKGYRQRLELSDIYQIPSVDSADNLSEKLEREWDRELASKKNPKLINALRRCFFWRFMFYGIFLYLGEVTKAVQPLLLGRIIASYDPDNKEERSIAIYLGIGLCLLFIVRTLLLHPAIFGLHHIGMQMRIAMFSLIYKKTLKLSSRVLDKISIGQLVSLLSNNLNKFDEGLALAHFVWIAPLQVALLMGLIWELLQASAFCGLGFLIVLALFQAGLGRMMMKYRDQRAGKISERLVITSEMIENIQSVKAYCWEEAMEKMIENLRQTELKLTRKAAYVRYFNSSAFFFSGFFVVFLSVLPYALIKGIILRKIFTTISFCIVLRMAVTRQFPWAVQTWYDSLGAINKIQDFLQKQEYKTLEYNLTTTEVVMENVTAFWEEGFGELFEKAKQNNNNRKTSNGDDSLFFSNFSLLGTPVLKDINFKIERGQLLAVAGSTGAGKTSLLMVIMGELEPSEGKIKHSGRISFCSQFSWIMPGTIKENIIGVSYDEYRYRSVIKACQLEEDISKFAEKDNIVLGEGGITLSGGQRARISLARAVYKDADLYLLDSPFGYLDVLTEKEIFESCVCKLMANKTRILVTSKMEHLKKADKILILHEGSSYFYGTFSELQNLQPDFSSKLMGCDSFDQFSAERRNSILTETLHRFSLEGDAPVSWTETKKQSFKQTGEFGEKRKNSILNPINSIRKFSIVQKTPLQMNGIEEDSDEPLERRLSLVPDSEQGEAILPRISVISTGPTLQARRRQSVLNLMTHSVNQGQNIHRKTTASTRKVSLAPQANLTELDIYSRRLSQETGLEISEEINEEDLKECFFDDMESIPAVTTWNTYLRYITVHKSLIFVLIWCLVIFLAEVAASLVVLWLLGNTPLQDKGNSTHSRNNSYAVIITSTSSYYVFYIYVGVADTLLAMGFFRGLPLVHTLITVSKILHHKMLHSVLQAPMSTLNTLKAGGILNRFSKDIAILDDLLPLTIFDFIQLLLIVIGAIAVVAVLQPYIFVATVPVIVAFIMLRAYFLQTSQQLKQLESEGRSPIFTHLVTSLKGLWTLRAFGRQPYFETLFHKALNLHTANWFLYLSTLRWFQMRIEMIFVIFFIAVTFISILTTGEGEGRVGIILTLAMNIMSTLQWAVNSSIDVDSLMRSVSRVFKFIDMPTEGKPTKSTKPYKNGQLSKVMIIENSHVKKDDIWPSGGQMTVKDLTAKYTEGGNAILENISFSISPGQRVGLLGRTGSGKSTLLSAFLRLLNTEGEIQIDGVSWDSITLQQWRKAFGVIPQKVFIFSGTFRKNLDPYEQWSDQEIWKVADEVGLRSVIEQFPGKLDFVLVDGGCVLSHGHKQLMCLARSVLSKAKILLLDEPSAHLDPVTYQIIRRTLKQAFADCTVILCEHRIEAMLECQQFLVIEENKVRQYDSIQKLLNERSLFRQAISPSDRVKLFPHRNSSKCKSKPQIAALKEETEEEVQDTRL

Structure (SMILES)	Ent. B Max Activity	EC50
COc1ccc(-c2c3nc(nc2-c2c(C)cccc2C)NS(=O)(=O)c2cccc(c2)C(=O)N[C@H](C)CO3)cc1 [Compound 144]	+++ (+++ is >60%)	< 1 µM
Cc1cccc(C)c1-c1nc2nc(c1C)OC[C@@H](CC(C)(C)O)N(C1CC3(CC3)C1)C(=O)c1cccc(c1)S(=O)(=O)N2 [Compound 108, (11R)-6-(2,6-Dimethylphenyl)-11-(2-hydroxy-2-methyl-propyl)-7-methyl-2,2-dioxo-12-spiro[2.3]hexan-5-yl-9-oxa-2λ^6-thia-3,5,12,19-tetrazatricyclo[12.3.1.14,8]nonadeca-1(18),4(19),5,7,14,16-hexaen-13-one]	+++ (+++ is >60%)	1 to 3 µM
Cc1cccc(C)c1-c1nc2nc(c1C)OC[C@@H](CC(C)(C)C)N(C1CC3(CC(CO)C3)C1)C(=O)c1cccc(c1)S(=O)(=O)N2 (stereo in doubt) [Compound 78]	+++ (+++ is >60%)	< 1 µM
COc1c2nc(nc1-c1c(C)cccc1C)NS(=O)(=O)c1cccc(c1)C(=O)N[C@H](CC(C)C)CO2 [Compound 180]	+++ (+++ is >60%)	< 1 µM
COc1ccc(-c2c3nc(nc2-c2c(C)cccc2C)NS(=O)(=O)c2cccc(c2)C(=O)NC[C@@H](C)O3)cc1 [Compound 130]	+++ (+++ is >60%)	< 1 µM
Cc1cccc(C)c1-c1nc2nc(c1F)OC[C@@H](CC(C)C)N(C1CC3(CCN(C(=O)OC(C)(C)C)CC3)C1)C(=O)c1cccc(c1)S(=O)(=O)N2 [Compound 187]	+++ (+++ is >60%)	< 1 µM
Cc1cccc(C)c1-c1nc2nc(c1C#N)OC[C@@H](CC(C)C)N(C1CC3(CC3)C1)C(=O)c1cccc(c1)S(=O)(=O)N2 [Compound 174]	++ (++ is 30-60%)	< 1 µM
Cc1cccc(C)c1-c1nc2nc(c1CN(C)C)OC[C@@H](CC(C)C)N(C1CC3(CC3)C1)C(=O)c1cccc(c1)S(=O)(=O)N2 [Compound 171, (11R)-7-[(Dimethylamino)methyl]-6-(2,6-dimethylphenyl)-11-isobutyl-2,2-dioxo-12-spiro[2.3]hexan-5-yl-9-oxa-2λ^6-thia-3,5,12,19-tetrazatricyclo[12.3.1.14,8]nonadeca-1(18),4(19),5,7,14,16-hexaen-13-one]	++ (++ is 30-60%)	< 1 µM
Cc1cccc(C)c1-c1nc2nc(c1-c1cnn(C(C)C)c1)OC[C@@H](C)NC(=O)c1cccc(c1)S(=O)(=O)N2 [Compound 139]	+ (+ is <30%)	3 to 30 µM
Cc1cccc(C)c1-c1nc2nc(c1C1CCOCC1)O[C@H](C)CNC(=O)c1cccc(c1)S(=O)(=O)N2 [Compound 151]	++ (++ is 30-60%)	–
Cc1cccc(C)c1-c1nc2nc(c1C)OC[C@@H](CC(C)(C)C(F)(F)F)N(C1CC3(CCN(C(=O)OC(C)C)CC3)C1)C(=O)c1cccc(c1)S(=O)(=O)N2 [Compound 184]	+++ (+++ is >60%)	< 1 µM
Cc1cccc(C)c1-c1nc2nc(c1/C=C/C(C)(C)C)O[C@H](C)CNC(=O)c1cccc(c1)S(=O)(=O)N2 [Compound 121, (10R)-7-[(E)-3,3-Dimethylbut-1-enyl]-6-(2,6-dimethylphenyl)-10-methyl-2,2-dioxo-9-oxa-2λ^6-thia-3,5,12,19-tetrazatricyclo[12.3.1.14,8]nonadeca-1(18),4(19),5,7,14,16-hexaen-13-one]	+++ (+++ is >60%)	< 1 µM
Cc1cccc(C)c1-c1nc2nc(c1F)OC[C@@H](CC(C)C)N(C1CC3(CC3)C1)C(=O)c1cccc(c1)S(=O)(=O)N2 [Compound 175]	+++ (+++ is >60%)	< 1 µM
Cc1cccc(C)c1-c1nc2nc(c1-c1cccnc1)O[C@H](C)CNC(=O)c1cccc(c1)S(=O)(=O)N2 [Compound 133]	+ (+ is <30%)	–
